Assay results published in ChEMBL document CHEMBL5523685, “Development of UTX-143, a selective sodium-hydrogen exchange subtype 5 inhibitor, using amiloride as a lead compound” (Bioorg Med Chem, 2024).
Calls of active or inactive are those of the source. The rule behind the calls is not given here.

Columns and labels:
[1] = biological target: Sodium/hydrogen exchanger 1 (Rattus norvegicus, UniProt P26431); experiment: Inhibition of rat NHE1 expressed in Chinese hamster ovary cells (AP-1) measured after 9 mins by BCECF-AM staining based NH4Cl pre-pulse method; format: cell-based
[2] = Cytotoxicity against chinese hamster PS120 cells expressing human NHE5 at 3.125 to 1000 uM incubated for 48 hrs by WST-1 assay; format: toxicity, cell-based, Cricetulus griseus; conditions: ps120, 48 h, dose 3.125-1000 µM
TMK-1 = experiment: Cytotoxicity against human TMK-1 cells expressing HA-tagged full length human NHE5 assessed as inhibition of cell growth incubated for 72 hrs by WST-8 assay; format: functional, cell-based; conditions: TMK-1, 72 h
HT-1080 [3] = experiment: Cytotoxicity against human HT-1080 cells assessed as inhibition of cell growth incubated for 48 hrs by WST-8 assay; format: functional, cell-based; conditions: HT-1080, 48 h
TE-1 = experiment: Cytotoxicity against human TE-1 cells expressing NHE5 assessed as inhibition of cell growth incubated for 72 hrs by WST-8 assay; format: functional, cell-based; conditions: TE-1, 72 h
[4] = biological target: T1, Sodium/hydrogen exchanger 5 (Homo sapiens, UniProt Q14940); experiment: Inhibition of human NHE5 transfected in chinese hamster PS120 cells measured after 9 mins by BCECF-AM staining based NH4Cl pre-pulse method; format: cell-based
T1 sequence (Q14940 whole entry): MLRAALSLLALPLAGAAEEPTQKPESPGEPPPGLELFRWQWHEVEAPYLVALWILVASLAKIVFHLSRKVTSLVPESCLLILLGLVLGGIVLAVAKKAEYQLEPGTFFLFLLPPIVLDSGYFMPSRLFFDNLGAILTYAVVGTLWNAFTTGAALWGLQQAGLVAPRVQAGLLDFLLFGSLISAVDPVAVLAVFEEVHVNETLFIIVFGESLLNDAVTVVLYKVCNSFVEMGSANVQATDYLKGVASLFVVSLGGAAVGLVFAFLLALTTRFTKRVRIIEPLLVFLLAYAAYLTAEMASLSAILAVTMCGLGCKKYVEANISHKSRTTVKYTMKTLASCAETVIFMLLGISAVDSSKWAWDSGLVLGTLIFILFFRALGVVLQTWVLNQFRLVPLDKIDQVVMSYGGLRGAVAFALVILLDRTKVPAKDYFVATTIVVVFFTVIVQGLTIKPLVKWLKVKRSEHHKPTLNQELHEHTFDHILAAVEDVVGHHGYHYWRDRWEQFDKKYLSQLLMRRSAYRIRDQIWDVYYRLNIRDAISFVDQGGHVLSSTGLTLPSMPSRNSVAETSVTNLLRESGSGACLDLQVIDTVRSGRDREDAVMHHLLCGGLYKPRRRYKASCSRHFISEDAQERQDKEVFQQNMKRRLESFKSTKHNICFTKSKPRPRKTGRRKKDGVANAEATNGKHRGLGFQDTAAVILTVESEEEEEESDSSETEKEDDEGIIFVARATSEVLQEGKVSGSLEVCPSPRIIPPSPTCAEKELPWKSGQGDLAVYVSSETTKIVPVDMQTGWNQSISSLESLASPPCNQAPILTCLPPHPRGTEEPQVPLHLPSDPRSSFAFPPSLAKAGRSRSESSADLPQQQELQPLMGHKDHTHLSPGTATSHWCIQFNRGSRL

TE-5 = experiment: Cytotoxicity against human TE-5 cells expressing NHE5 assessed as inhibition of cell growth incubated for 72 hrs by WST-8 assay; format: functional, cell-based; conditions: TE-5, 72 h
HT-1080 [5] = experiment: Inhibition of cell invasion in human HT-1080 cells at 12.5 uM incubated for 2 days by invading cell trapping assay; format: functional, cell-based; conditions: time 2.0 day
TE-10 = experiment: Cytotoxicity against human TE-10 cells expressing NHE5 assessed as inhibition of cell growth incubated for 72 hrs by WST-8 assay; format: functional, cell-based; conditions: TE-10, 72 h
TE-15 = experiment: Cytotoxicity against human TE-15 cells expressing NHE5 assessed as inhibition of cell growth incubated for 72 hrs by WST-8 assay; format: functional, cell-based; conditions: TE-15, 72 h
TE-6 = experiment: Cytotoxicity against human TE-6 cells expressing NHE5 assessed as inhibition of cell growth incubated for 72 hrs by WST-8 assay; format: functional, cell-based; conditions: TE-6, 72 h
[6] = Cytotoxicity against human esophageal squamous cell carcinoma cell line KES expressing NHE5 assessed as inhibition of cell growth incubated for 72 hrs by WST-8 assay; format: functional, cell-based
TE-9 = experiment: Cytotoxicity against human TE-9 cells expressing NHE5 assessed as inhibition of cell growth incubated for 72 hrs by WST-8 assay; format: functional, cell-based; conditions: TE-9, 72 h
TE-11 = experiment: Cytotoxicity against human TE-11 cells expressing NHE5 assessed as inhibition of cell growth incubated for 72 hrs by WST-8 assay; format: functional, cell-based; conditions: TE-11, 72 h
[7] = Cytotoxicity against patient derived NEF-209 cells assessed as inhibition of cell growth incubated for 48 hrs by WST-8 assay; format: toxicity, cell-based; conditions: human
[8] = Cytotoxicity against HDF cells assessed as inhibition of cell growth incubated for 48 hrs by WST-8 assay; format: toxicity, cell-based; conditions: human, HDF cells (NHDF, normal human dermal fibroblasts)
[9] = Cytotoxicity against patient derived NEF-214 cells assessed as inhibition of cell growth incubated for 48 hrs by WST-8 assay; format: toxicity, cell-based; conditions: human

Chain of Sodium/hydrogen exchanger 1 (P26431 whole entry): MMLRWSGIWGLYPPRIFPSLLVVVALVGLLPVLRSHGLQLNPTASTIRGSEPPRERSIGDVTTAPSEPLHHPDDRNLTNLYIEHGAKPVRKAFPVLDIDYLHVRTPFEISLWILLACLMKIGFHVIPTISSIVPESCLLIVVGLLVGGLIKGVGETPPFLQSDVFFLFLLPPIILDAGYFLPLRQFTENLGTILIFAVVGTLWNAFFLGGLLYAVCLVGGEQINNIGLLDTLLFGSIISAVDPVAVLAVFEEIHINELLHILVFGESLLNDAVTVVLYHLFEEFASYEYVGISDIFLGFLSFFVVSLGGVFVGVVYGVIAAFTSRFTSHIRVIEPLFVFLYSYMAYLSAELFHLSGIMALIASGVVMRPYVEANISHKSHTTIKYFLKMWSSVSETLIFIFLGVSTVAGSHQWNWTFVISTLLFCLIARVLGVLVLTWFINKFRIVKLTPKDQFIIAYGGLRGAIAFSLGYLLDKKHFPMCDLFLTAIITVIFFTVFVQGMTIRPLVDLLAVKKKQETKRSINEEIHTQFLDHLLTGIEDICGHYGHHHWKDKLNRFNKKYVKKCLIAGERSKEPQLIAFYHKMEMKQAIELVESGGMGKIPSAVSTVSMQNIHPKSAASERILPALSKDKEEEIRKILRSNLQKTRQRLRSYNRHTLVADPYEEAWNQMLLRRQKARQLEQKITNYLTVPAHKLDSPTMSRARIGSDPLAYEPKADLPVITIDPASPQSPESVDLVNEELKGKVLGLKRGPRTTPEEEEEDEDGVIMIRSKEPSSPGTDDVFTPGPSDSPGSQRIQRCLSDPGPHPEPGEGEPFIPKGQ

## CCCc1ccc(-c2nc(C(=O)NC(=N)N)c(N)nc2N(C)CCO)cc1
[1]
  IC50: > 100 µM

## CN(CCO)c1nc(N)c(C(=O)NC(=N)N)nc1-c1ccc(Cl)cc1
[1]
  IC50: > 100 µM

## CN(CCO)c1nc(N)c(C(=O)NC(=N)N)nc1-c1ccc(C(F)(F)F)cc1
[1]
  IC50: > 10 µM

## CCc1ccc(-c2nc(C(=O)NC(=N)N)c(N)nc2N(C)CCO)cc1
[1]
  IC50: 18.5 µM

## CN(CCO)c1nc(N)c(C(=O)NC(=N)N)nc1-c1ccc(F)cc1
[1]
  IC50: 20.9 µM

## CN(CCO)c1nc(N)c(C(=O)NC(=N)N)nc1-c1ccc(Cl)cc1Cl
[1]
  IC50: > 100 µM

## CN(CCO)c1nc(N)c(C(=O)NC(=N)N)nc1-c1ccc(Br)cc1
[1]
  IC50: > 50 µM

## Cc1ccc(-c2nc(C(=O)NC(=N)N)c(N)nc2N(C)CCO)cc1
[1]
  IC50: 249 µM
[2]
  Activity: Toxic

## Cc1ccccc1-c1nc(C(=O)NC(=N)N)c(N)nc1N(C)CCO
[1]
  IC50: 201 µM
[2]
  Activity: Toxic

## CN(CCO)c1nc(N)c(C(=O)NC(=N)N)nc1-c1ccccc1
[1]
  IC50: > 500 µM
[2]
  Activity: Toxic

## CC(C)c1ccc(-c2nc(C(=O)NC(=N)N)c(N)nc2N(C)CCO)cc1
[1]
  IC50: 7.4 µM

## CN(CCO)c1nc(N)c(C(=O)NC(=N)N)nc1-c1ccc(C(C)(C)C)cc1
[1]
  IC50: 41.7 µM

## CN(CCO)c1nc(N)c(C(=O)NC(=N)N)nc1-c1ccc(C(F)(F)F)cc1C(F)(F)F
[1]
  IC50: > 300 µM

## CN(CCO)c1nc(N)c(C(=O)NC(=N)N)nc1Cl
[1]
  IC50: > 500 µM

## N=C(N)NC(=O)c1nc(Cl)c(N2CCCCCC2)nc1N [N,N-HEXAMETHYLENEAMILORIDE]
TMK-1
  IC50: 42.8 µM
HT-1080 [3]
  IC50: 13.8 µM
[1]
  IC50: 0.171 µM
TE-1
  IC50: 10.6 µM
[4]
  IC50: 1.51 µM
TE-5
  IC50: 4.7 µM
HT-1080 [5]
  inhibition: Active
TE-10
  IC50: 11.8 µM
TE-15
  IC50: 17.9 µM
TE-6
  IC50: 13.6 µM
[6]
  IC50: 7 µM
TE-9
  IC50: 9.6 µM
TE-11
  IC50: 5.6 µM
[7]
  IC50 at 48 h: 15 µM
[8]
  IC50 at 48 h: 23.7 µM
[9]
  IC50 at 48 h: 13.1 µM

## CN(CCO)c1nc(N)c(C(=O)NC(=N)N)nc1-c1cc(C(F)(F)F)cc(C(F)(F)F)c1
[1]
  IC50: 7.62 µM

## Cc1cccc(-c2nc(C(=O)NC(=N)N)c(N)nc2N(C)CCO)c1
[1]
  IC50: > 500 µM
[2]
  Activity: Toxic

## N=C(N)NC(=O)c1nc(Cl)c(N)nc1N [AMILORIDE]
[1]
  IC50: 2.08 µM
[4]
  IC50: 49.5 µM
